In US20160058829A1, “ANTI-FIBROTIC PEPTIDES AND THEIR USE IN METHODS FOR TREATING DISEASES AND DISORDERS CHARACTERIZED BY FIBROSIS” (Thrasos Innovation, Inc., priority 2011, published 2016):
“Also recorded” adds a separate entry of the source. Where two headings read alike, the source gives them in different places. Positions of bridges follow the written chain, without caps; N, C: chain ends.

Legend:
HK-2 cells = experiment: TNF-α-induced inflammatory cytokine production in HK-2 cells (ELISA); type: cell-based, human; settings: HK-2 cells
Procedure: FIG. 37 provides a bar graph showing a comparison of the effects of THR-123 (or “THR-1405”) and the specific inhibitor SB 203580 on the level of TNF-α-induced IL-6 production, an inflammatory marker, in human renal tubule epithelial cells (HK-2).
FIG. 47A-FIG. 47C Anti-inflammatory activity of THR-123. PTEC-derived HK-2 (HK-2) cells were culture on 24-well plate (30,000 cells/well). Cells are exposed to K-SFM medium alone or TNF-α (5 ng/ml). Twenty hours after TNF-α incubation, cells are washed twice by pre-warmed culture media and subsequently cells are incubated with various concentration of THR-123 or BMP7 for 60 hours. At the end of incubation, culture medias are harvested and ELISA analysis are performed. FIG. 47A: IL-6, FIG. 47B: IL-8 and FIG. 47C: ICAM-1 results are shown. Analyze are performed in triplicates and data are shown as mean±s.e.m. in the graph.
Preliminary screening for optimization was based on anti-inflammatory efficacy in an in vitro cell-based assay using a human renal tubular epithelial cell line (HK-2). The assay tested the ability of compounds to reverse the increase in production of cytokine IL-6 that resulted from stimulation of the cells with tumor necrosis factor (TNF)-α. Sequence-activity analysis was carried out using the SVA program. After six optimization cycles, THR-123 (FIG. 2A) emerged as the lead compound, which was further evaluated in other relevant anti-fibrosis assays (vide infra).
Human proximal tubular epithelial cells-derived HK-2 cells were culture on 24-well plate (30,000 cells/well). Cells are exposed to K-SFM medium alone or […] (5 ng/ml). Twenty hours after TNF-α incubation, cells are washed twice by pre-warmed culture media and subsequently cells are incubated with various concentration of THR-123 or BMP7 for 60 hours. At the end of incubation, culture medias are harvested and ELISA analysis for IL-6, IL-8 and ICAM-1 are performed.

ALK2 = target: T1, ALK2 (Homo sapiens, UniProt Q04771); experiment: BMP type I receptor binding, ALK2 ECD
T1 sequence (Q04771 21-123 limits assumed): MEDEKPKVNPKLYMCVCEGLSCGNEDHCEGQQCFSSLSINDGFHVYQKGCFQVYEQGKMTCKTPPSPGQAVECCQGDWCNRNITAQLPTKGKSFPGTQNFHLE
Procedure: FIG. 31 provides a table indicating a comparison between THR-123 (SEQ ID NO: 1) and BMP-7 for binding to Type I and Type II BMP receptors. Like BMP-7, THR-123 binds to both ALK2 and ALK3 (type I) and BMPR-II (type II) BMP receptors. However, BMP-7, but not THR-123 binds to ALK6 (type I) receptor.
First, specific affinity of the extra cellular domains (ECD) of the several type I receptors of BMPs to THR-123 was analyzed. Binding of cold BMP7 to immobilized receptor ECDs was determined by competition with ^125I-labeled BMP7 and analyzed by Scatchard analysis to determine effective dissociation constants of BMP7 for each of the receptor ECDs. To obtain an estimate of the effective dissociation constant of THR-123 for a particular receptor ECD, the dissociation constant for cold BMP7 was multiplied by the ratio of the ED50 of THR-123 to the ED50 for cold BMP7.

[1] = test system: mice with unilateral ureteral obstruction (UUO); experiment: Unilateral ureteral obstruction (UUO) in mice; type: in vivo; settings: for kidney histology (H&E), day 7 UUO: BMP7 i.p., THR-123 i.p. or orally; for interstitial volume / fibrosis, day 7 UUO: BMP-7 300 μg/Kg every other day i.p., THR-123 5 mg/Kg/day i.p. or oral
Procedure: FIG. 56A-FIG. 56J The effect of THR-123 on mice with unilateral ureteral obstruction (UUO) mice. At the day of UUO, BMP-7 (300 μg/Kg/every other day, intraperitoneal administration) or THR-123 (5 mg/Kg/day, oral or intraperitoneal administration) are initiated. FIG. 56A-FIG. 56D: Masson's trichrome staining of normal kidney, day 5 UUO kidney. FIG. 56A. normal kidney section. […] FIG. 56C, FIG. 56D. […] FIG. 56E. Morphometric analysis for relative interstitial volume. Interstitial volume was calculated by the point counting method. FIG. 56F-FIG. 56I. Masson's trichrome staining of normal kidney, day 7 UUO kidney. […] FIG. 56I. Morphometric analysis for relative interstitial volume. Interstitial volume was calculated by the point counting method. […] Normal mice (n=4), day 5 UUO without treatment (n=4), day 5 UUO-treated with 5 mg/kg THR-123 (n=4), day 5 UUO-treated with 15 mg/kg THR-123 (n=4), day 7 UUO-treated with PBS (n=8), -treated with BMP (n=8) and -treated with THR-123 (n=7 in both i.p. and oral). Data are shown as mean±s.e.m. in the graph (FIG. 56J).
FIG. 57A-FIG. 57H The effect of THR-123 on mice with unilateral ureteral obstruction (UUO) mice (H&E staining). On the day UUO was performed, treatments of BMP7 (300 μg/Kg/every other day, intraperitoneal administration) or THR-123 (5 mg/Kg/day, oral or intraperitoneal administration) are initiated. FIG. 57A. Normal kidney section. FIG. 57B. Day 5 UUO mice FIG. 57C, FIG. 57D. Kidney of UUO mice treated with THR-123 orally at 5 mg/kg (FIG. 57C) or 15 mg/kg (FIG. 57D) E-H. Day 7 UUO kidney histology. […] Normal mice (n=4), day 5 UUO without treatment (n=4), day 5 UUO-treated with 5 mg/kg THR-123 (n=4), day 5 UUO-treated with 15 mg/kg THR-123 (n=4), day 7 UUO-treated with PBS (n=8), -treated with BMP (n=8) and -treated with THR-123 (n=7 in both i.p. and oral).
FIG. 58 Gene expression analysis for the fibrosis markers in mice with UUO. Quantitative RT-PCR analysis for fibronectin-EIII and collagen type-I in normal kidney and day 7 UUO kidney with or without indicated treatment.
Mice are anesthetized with the mixture of ketamine and xylazine. Prepare the ureter from the surrounding tissues and place two ligatures about 5 mm apart in upper two-thirds of the ureter of the left kidney to obtain reliable obstruction. At same day after surgery, mice were initiated treatment with BMP7 (300 μg i.p./Kg/every other day), THR-123 (p.o. 5 mg or 15 mg/Kg/day, i.p. 5 mg/Kg/day) or PBS (i.p.) as control. Mice are sacrificed at day 5 or 7 after operation.

Molecule: (H)-CYFDDSSNVLCKKYRS-(OH) (H-CYFDDSSNVLCKKYRS-OH; disulfide 1-11; SMILES CC(C)C[C@@H]1NC(=O)[C@H](C(C)C)NC(=O)[C@H](CC(N)=O)NC(=O)[C@H](CO)NC(=O)[C@H](CO)NC(=O)[C@H](CC(=O)O)NC(=O)[C@H](CC(=O)O)NC(=O)[C@H](Cc2ccccc2)NC(=O)[C@H](Cc2ccc(O)cc2)NC(=O)[C@@H](N)CSSC[C@@H](C(=O)N[C@@H](CCCCN)C(=O)N[C@@H](CCCCN)C(=O)N[C@@H](Cc2ccc(O)cc2)C(=O)N[C@@H](CCCNC(=N)N)C(=O)N[C@@H](CO)C(=O)O)NC1=O) [SEQ ID NO: 1]
- TNF-α-induced ICAM-1 production (HK-2 cells): inhibits
- TNF-α-induced IL-8 production (HK-2 cells): inhibits
- TNF-α-induced IL-6 production (HK-2 cells; listed as THR-123): inhibited TNF-α induced IL-6 production in dose dependent manner; also recorded: significantly reduced
- binding to ALK2 (ALK2; listed as THR-123): to a small extent; also recorded: binds
- kidney histology (H&E), day 7 UUO [1]: preserved tubules
- interstitial volume / fibrosis, day 7 UUO ([1]; 5 mg/kg/day): inhibited fibrosis; also recorded: less kidney interstitial volume
- interstitial volume expansion, day 5 UUO ([1]; THR-123 oral 5 mg/Kg or 15 mg/Kg): inhibited interstitial volume expansion
- kidney histology, day 5 UUO ([1]; THR-123 orally 5 mg/kg or 15 mg/kg): less tubular atrophy, tubular dilatation and interstitial inflammation
- expression of fibronectin and type I collagen, day 7 UUO ([1]; quantitative RT-PCR): decreased expression of matrix components such as fibronectin and type I collagen

B1: BMP-7: bone morphogenetic protein-7; recombinant human BMP7, positive control (protein)
chain: STGSKQRSQNRSKTPKNQEALRMANVAENSSSDQRQACKKHELYVSFRDLGWQDWIIAPEGYAAYYCEGECAFPLNSYMNATNHAIVQTLVHFINPETVPKPCCAPTQLNAISVLYFDDSSNVILKKYRNMVVRACGCH
- TNF-α-induced IL-6 production (HK-2 cells): inhibited TNF-α induced IL-6 production in dose dependent manner
- binding to ALK2 (ALK2): binds
- kidney histology (H&E), day 7 UUO [1]: preserved tubules
- interstitial volume / fibrosis, day 7 UUO [1]: ameliorated interstitial volume expansion
- interstitial volume / fibrosis, day 7 UUO ([1]; listed as BMP7): less kidney interstitial volume
